Assay [1] relates to HepG2 (Hepatocellular Carcinoma). Nature of the assay: FMCA cytotoxicity, HepG2. Type of assay: cell-based, human. The note with it: Homo sapiens, 72 h. As to the method: (§1) The inventors also set out to characterize activity of the compounds A, B and C in cell lines representing cancer of different origin. The specific assays used and the conclusions from the mechanistic evaluation have previously been described in detail (Zhang et al. 2014). Compounds A, B and C (See FIG. 4) were evaluated for cytotoxicity expressed as survival index (SI) in six human tumor cell lines using the cell based fluorometric micro culture cytotoxicity assay (FMCA) as previously described in detail (Lindhagen et al, 2008). The method is based on measurement of fluorescent fluorescein, generated from hydrolysis of FDA by viable cells with intact plasma membrane. The fluorescence is proportional to the number of intact viable cells.
(§2) The cell lines were cultivated in the respective cell medium recommended by the provider. The medium was supplemented with 10% heat-inactivated fetal bovine serum, 2 mmol/L L-glutamine, 100 μg/mL streptomycin and 100 U/mL penicillin (all from Sigma-Aldrich). The cell line was cultured at 37° C. in a humidified atmosphere containing 5% CO2.
(§3) FMCA analysis in brief, 2500 cells per well were seeded into 384-well microplates and incubated over night before treatment with compounds. Compounds were added using acoustic liquid transfer (Echo 550, LabCyte). The plates were incubated at 37° C. for 72 h, and then washed and FDA was added to the wells followed by 50 min of incubation at 37° C. The fluorescence, which is proportional to the number of living cells in each well, was measured at 485/520 nm in a Fluoroskan instrument (Labsystems, GMI, Ramsey, Minn.). Cell survival is presented as Survival Index (SI), defined as the fluorescence value in the compound-treated wells analysed as percentage of the value in the control wells, with blank values subtracted. Quality criteria included a signal/blank ratio >10 and a coefficient of variation (CV) in control and blank wells <30%. Graph Pad Prism (San Diego, Calif., USA). All experiments were performed twice, and each concentration was evaluated in quadruplicates in each experiment. […]

Assay [2] deals with CCRF-CEM (Acute lymphoblastic leukemia). The assay is described as follows: FMCA cytotoxicity, CCRF-CEM. The conditions noted are these: Homo sapiens, 72 h. Type of assay: cell-based, human. As to the method:
as §1, §2, §3

Assay [3] deals with six human tumor cell lines. Nature of the assay: FMCA cytotoxicity, six human tumor cell lines (overall). Type of assay: cell-based. The note with it: Table 6 and FIG. 4. The protocol:
as §1, §2, §3

The test system of assay [4] is THP-1 (Acute Monocytic Leukemia). Nature of the assay: FMCA cytotoxicity, THP-1. Type of assay: cell-based, human. The conditions noted are these: Homo sapiens, 72 h. As to the method: as §1, §2, §3
Assay [5] concerns HeLa (Cervix Adenocarcinoma). Nature of the assay: FMCA cytotoxicity, HeLa. The note with it: Homo sapiens, 72 h. The assay is classed as cell-based, human. As to the method:
as §1, §2, §3

The test system of the next assay is RKO (Colon carcinoma). Nature of the assay: FMCA cytotoxicity, RKO. The assay is classed as cell-based, human. The conditions noted are these: Homo sapiens, 72 h. As to the method: as §1, §2, §3
The test system of another assay is HCT116 (Colon carcinoma). Nature of the assay: FMCA cytotoxicity, HCT116. Type of assay: cell-based, human. The conditions noted are these: Homo sapiens, HCT-116, 72 h. As to the method:
as §1, §2, §3

Broadly, the IC50 is the concentration that gives 50% inhibition. High values mean weaker potency in that assay, low ones greater potency in that assay.

Regarding `CC/C(=N\Nc1nnc2c(n1)[nH]c1c(C)cccc12)c1ccccn1` [Compound B, 2-[(1E)-1-(2-{6-methyl-5H-[1,2,4]triazino[5,6-b]indole-3-yl}hydrazin-1-ylidene)propyl]pyridine], the IC50 in assay [1] is less than 250 nM; in assay [2] it was less than 250 nM; in assay [4], less than 250 nM; in assay [5], approximately 20000 nM; in the assay on RKO (Colon carcinoma) it was less than 250 nM; in the assay with HCT116 (Colon carcinoma) it was approximately 1000 nM. For the same compound, the “activity on cancer cell lines” value in assay [3] was “strong activity”.

Take `Cc1cccc2c1[nH]c1nc(NN=C(CC(C)(C)C)c3ccccn3)nnc12` [Compound C, 2-(3,3-dimethyl-N-{6-methyl-5H-[1,2,4]triazino[5,6-b]indole-3-yl}butanehydrazonoyl)pyridine]: the IC50 is less than 250 nM in assay [1]; less than 250 nM in assay [2]; less than 250 nM in assay [4]; approximately 10000 nM in assay [5]; less than 250 nM with RKO (Colon carcinoma); approximately 1000 nM with HCT116 (Colon carcinoma). Moreover, the “activity on cancer cell lines” value in assay [3] is reported as “strong activity”.

Source of the values: patent US10668056B2, “Pharmaceutical composition comprising indole derivatives, process for preparation and use thereof” (VIVOLUX AB, priority 2015, dated 2020).
